The record followed here is patent US6806265B2, “Non-nucleoside reverse transcriptase inhibitors” (priority 2002, dated 2004).

Assay [1] has as its target T1, HIV-1 RT double mutant K103N/Y181C (Human immunodeficiency virus type 1 group M subtype B, UniProt P03366, K702N/Y780C).
T1 construct: HIV-1 wild type reverse transcriptase as well as the clinically significant double mutant K103N/Y181C
The assay is described as follows: biochemical. The method, then:
(§1) Utilizing the Reverse Transcriptase (RT) Assay described below, compounds were tested for their ability to inhibit the RNA-dependent DNA polymerase activity of HIV-1 RT. Certain specific compounds described in the Examples and in Tables 1-4, were so tested. The results of this testing appear in Table 5 as ranges of IC50 (nM) and EC50 (nM).
(§2) Reverse Transcriptase (RT) Assays

Assay [2] deals with T2, HIV-1 wild type reverse transcriptase (Human immunodeficiency virus type 1 group M subtype B, UniProt P03366).
T2 construct: HIV-1 wild type reverse transcriptase
The assay is described as follows: biochemical. The method, then:
as §1, §2

In the next assay the test system is HIV-1 wild type. The assay is described as follows: microbe, parasite or virus in culture. As to conditions: wild type, read-out: EC50 WT RT. It counts as cell-based.
The test system of assay [3] is HIV-1 double mutant K103N/Y181C. Put plainly: microbe, parasite or virus in culture. It counts as cell-based.
[4] abbreviates: RT double mutant K103N/Y181C, read-out: IC50 K103N/Y181C.
Setting [5] is: wild type RT, read-out: IC50 WT RT.
Where [6] appears, read: double mutant K103N/Y181C, read-out: EC50 K103N/Y181C.
The mark [7] stands for this setting: Human immunodeficiency virus 1, read-out: EC50 K103N/Y181C (nM).

Like-named read-outs stand apart in the source and are kept apart here.

With `CCN1c2ncc(CCOc3ccc(-c4ccc(C(=O)O)cc4)cc3)cc2C(=O)N(C)c2ccc(Cl)nc21` [Entry 1002], the IC50 in assay [1] (setting [4]) and in assay [2] (setting [5]) was less than 50 nM throughout. In addition, the EC50 in the assay with HIV-1 wild type is less than 10 nM.

As to `CCN1c2ncc(CCOc3ccc(-c4ccc(CC(=O)O)cc4)cc3C)cc2C(=O)Nc2c(C)ccnc21` [Entry 1009], the IC50 in assay [1] (setting [4]) and in assay [2] (setting [5]) was less than 50 nM in each case. The EC50 in the assay with HIV-1 wild type was in the range of 10 to 50 nM.

Regarding `CCN1c2ncc(CCOc3ccc(-c4ccc(C(C)C(=O)O)cc4)cc3C)cc2C(=O)N(C)c2cccnc21` (stereo not drawn) [Entry 1010], the IC50 in assay [1] (setting [4]) and in assay [2] (setting [5]) was less than 50 nM in each case. In assay [3] (setting [6]), the EC50 is 10 to 50 nM.

For `CCN1c2ncc(CCOc3ccc(-c4ccc(CC(=O)O)c(C)c4)cc3C)cc2C(=O)N(C)c2cccnc21` [Entry 1021], the IC50 in assay [1] (setting [4]) and in assay [2] (setting [5]) was less than 50 nM each time. For the same compound, in assay [3] (setting [6]), the EC50 lay in the range of 10 to 50 nM.

On to `CCN1c2ncc(CCOc3ccc(-c4ccc(CC(=O)O)cc4F)cc3C)cc2C(=O)N(C)c2cccnc21` [Entry 1024], for which the IC50 in assay [1] (setting [4]) and in assay [2] (setting [5]) was less than 50 nM each time. The EC50 in assay [3] (setting [6]) is 10 to 50 nM.

`CCN1c2ncc(CCOc3ccc(-c4ccc(CC(=O)O)cc4OC)cc3C)cc2C(=O)N(C)c2cccnc21` [Entry 1026]: the IC50 in assay [1] (setting [4]) and in assay [2] (setting [5]) was less than 50 nM each time. The EC50 in assay [3] (setting [6]) fell in the range of 10 to 50 nM.

As to `CCN1c2ncc(CCOc3ccc(-c4cc(C(=O)O)ccc4C)cc3C)cc2C(=O)N(C)c2cccnc21` [Entry 1028], the IC50 was more than 100 nM in assay [1] (setting [4]) and less than 50 nM in assay [2] (setting [5]). Besides, the EC50 in assay [3] (setting [6]) is 10 to 50 nM.

Turning to `CCN1c2ncc(CCOc3ccc(-c4ccc(Cl)c(C(=O)O)c4)cc3C)cc2C(=O)N(C)c2cccnc21` [Entry 1032], the IC50 in assay [1] (setting [4]) is 50 to 100 nM; in assay [2] (setting [5]) it was less than 50 nM. The EC50 in assay [3] (setting [6]) was in the range of 10 to 50 nM.

On to `CCN1c2ncc(CCOc3ccc(-c4ccc(O)c(C(=O)O)c4)cc3C)cc2C(=O)N(C)c2cccnc21` [Entry 1033], for which the IC50 in assay [1] (setting [4]) was 50 to 100 nM; in assay [2] (setting [5]), less than 50 nM. The EC50 in assay [3] (setting [6]) was more than 50 nM.

Take `CCN1c2ncc(CCOc3ccc(-c4cc(CC(=O)O)ccc4C)cc3C)cc2C(=O)N(C)c2cccnc21` [Entry 1036]: the IC50 in assay [1] (setting [4]) was 50 to 100 nM; in assay [2] (setting [5]), less than 50 nM. The EC50 in assay [3] (setting [6]) was 10 to 50 nM.

For `CCN1c2ncc(CCOc3ccc(-c4cc(CC(=O)O)ccc4OC)cc3C)cc2C(=O)N(C)c2cccnc21` [Entry 1037], the IC50 is 50 to 100 nM in assay [1] (setting [4]) and less than 50 nM in assay [2] (setting [5]). Further, in assay [3] (setting [6]), the EC50 lay in the range of 10 to 50 nM.

For `CCN1c2ncc(CCOc3ccc(-c4ccc(Cl)c(CC(=O)O)c4)cc3C)cc2C(=O)N(C)c2cccnc21` [Entry 1038], the IC50 in assay [1] (setting [4]) and in assay [2] (setting [5]) was less than 50 nM in each case. Moreover, the EC50 in assay [3] (setting [6]) was in the range of 10 to 50 nM.

Consider `CCN1c2ncc(CCOc3ccc(-c4cccnc4)cc3C)cc2C(=O)N(C)c2cccnc21` [Entry 1067], for which the IC50 in assay [1] (setting [4]) and in assay [2] (read-out: IC50 WT RT) was less than 50 nM in each case. In addition, the EC50 in assay [3] (setting [6]) was less than 10 nM.

In the case of `CCN1c2ncc(CCOc3ccc(-c4ccc(C)nc4)cc3C)cc2C(=O)N(C)c2cccnc21` [Entry 1072], the IC50 in assay [1] (setting [4]) is less than 50 nM. The EC50 in assay [3] (setting [6]) was less than 10 nM.

With `CCN1c2ncc(CCOc3ccc(-c4cc[n+](C)cc4)cc3C)cc2C(=O)N(C)c2cccnc21` [Entry 1089], in assay [1] (setting [4]), the IC50 is less than 50 nM. For the same compound, the EC50 in assay [3] (setting [6]) was less than 10 nM.

Regarding `CCN1c2ncc(CCOc3ccc(-c4ncc[nH]4)cc3C)cc2C(=O)N(C)c2cccnc21` [Entry 1096, 11-Ethyl-5,11-dihydro-8-{2-[4-(1H-imidazol-2-yl)-2-methylphenoxy]ethyl}-5-methyl-6H-dipyrido[3,2-b:2′,3′-e][1,4]diazepin-6-one], the IC50 in assay [1] and in assay [2] (setting [5]) was less than 50 nM throughout. In addition, the EC50 in assay [3] (setting [7]) is less than 10 nM.

For the compound `CCN1c2ncc(CCOc3ccc(-c4nccn4C)cc3C)cc2C(=O)N(C)c2cccnc21` [Entry 1097, 11-Ethyl-5,11-dihydro-5-methyl-8-{2-[2-methyl-4-(1-methyl-1H-imidazol-2-yl)phenoxy]ethyl}-6H-dipyrido[3,2-b:2′,3′-e][1,4]diazepin-6-one], the IC50 in assay [1] was 50 to 100 nM; in assay [2] (setting [5]), less than 50 nM. Moreover, in assay [3] (setting [7]), the EC50 was in the range of 10 to 50 nM.

Regarding `CCN1c2ncc(CCOc3ccc(-n4ccnc4)cc3C)cc2C(=O)N(C)c2cccnc21` [Entry 1098, 11-Ethyl-5,11-dihydro-8-{2-[4-(1H-imidazol-1-yl)-2-methylphenoxy]ethyl}-5-methyl-6H-dipyrido[3,2-b:2′,3′-e][1,4]diazepin-6-one], the IC50 in assay [1] is less than 50 nM. The EC50 in assay [3] (setting [7]) is less than 10 nM.

For the compound `CCN1c2ncc(CCOc3ccc(-c4ccc(C)cc4)cc3C)cc2C(=O)N(C)c2cccnc21` [Entry 1105], the IC50 in assay [1] (setting [4]) and in assay [2] (setting [5]) was less than 50 nM in each case.

Turning to `CCN1c2ncc(CCOc3cccc(-c4ccccc4)c3)cc2C(=O)N(C)c2cccnc21` [Entry 2003], the IC50 in assay [1] was more than 100 nM; in assay [2] (setting [5]), less than 50 nM.

In the case of `CCN1c2ncc(CCOc3ccc(C(=O)NCc4ccc(C(=O)O)cc4)cc3C)cc2C(=O)N(C)c2cccnc21` [Entry 3002], the IC50 in assay [1] and in assay [2] (setting [5]) was less than 50 nM throughout.

Regarding `CCN1c2ncc(CCOc3ccc(C(=O)NCc4cc[n+]([O-])cc4)cc3C)cc2C(=O)N(C)c2cccnc21` [Entry 3003], the values for the IC50 in assay [1] and in assay [2] (setting [5]) were 50 to 100 nM and less than 50 nM, respectively.

`CCN1c2ncc(CCOc3ccc(C(=O)N(C)Cc4ccc(C(=O)O)cc4)cc3C)cc2C(=O)N(C)c2cccnc21` [Entry 3006]: the IC50 in assay [1] is 50 to 100 nM; in assay [2] (setting [5]) it was less than 50 nM.

Turning to `CCN1c2ncc(CCOc3ccc(C(=O)N4CCC(C(=O)O)CC4)cc3C)cc2C(=O)N(C)c2cccnc21` [Entry 3008], the IC50 in assay [1] was 50 to 100 nM; in assay [2] (setting [5]) it was less than 50 nM. Also, the EC50 in the assay on HIV-1 wild type (Human immunodeficiency virus 1) fell in the range of 10 to 50 nM.

With `CCN1c2ncc(CCOc3ccc(C(=O)Nc4ccc[n+]([O-])c4)cc3C)cc2C(=O)N(C)c2cccnc21` [Entry 3013], the IC50 in assay [1] and in assay [2] (setting [5]) was less than 50 nM in each case.

For the compound `CCN1c2ncc(CCOc3ccc(C(=O)Nc4ccc(C(=O)O)cn4)cc3C)cc2C(=O)N(C)c2cccnc21` [Entry 3014], the IC50 in assay [1] and in assay [2] was less than 50 nM throughout. In addition, the EC50 in assay [3] (setting [7]) fell in the range of 10 to 50 nM.

For the compound `CCN1c2ncc(CCOc3ccc(C(=O)Nc4cccc[n+]4[O-])cc3C)cc2C(=O)N(C)c2cccnc21` [Entry 3015], the IC50 in assay [1] and in assay [2] (setting [5]) was less than 50 nM each time.

With `CCN1c2ncc(CCOc3ccc(C(=O)N(C)c4ccc(C(=O)O)cc4)cc3C)cc2C(=O)N(C)c2cccnc21` [Entry 3016], the IC50 was 50 to 100 nM in assay [1] and less than 50 nM in assay [2] (setting [5]). In addition, the EC50 in assay [3] (setting [7]) lay within 10 to 50 nM.

In the case of `CCN1c2ncc(CCOc3ccc(N(C)c4ccc(C(=O)O)cc4)cc3C)cc2C(=O)N(C)c2cccnc21` [Entry 3023], the figures for the IC50 in assay [1] and in assay [2] (setting [5]) were 50 to 100 nM and less than 50 nM, respectively.

Consider `CCN1c2ncc(CCOc3ccc(Nc4ccc(C(=O)O)cn4)cc3C)cc2C(=O)N(C)c2cccnc21` [Entry 3025], for which, in assay [1], the IC50 is less than 50 nM. Further, the EC50 in assay [3] (setting [7]) is 10 to 50 nM.

As for `CCN1c2ncc(CCOc3ccc(S(=O)(=O)c4ccc(C(=O)O)cc4)cc3C)cc2C(=O)N(C)c2cccnc21` [Entry 3028], the IC50 in assay [1] and in assay [2] (setting [5]) was less than 50 nM in each case. In assay [3] (setting [7]), the EC50 is more than 50 nM.

In assay [1], `CCN1c2ncc(CCOc3ccc(S(=O)(=O)c4cccc(CC(=O)O)c4)cc3C)cc2C(=O)N(C)c2cccnc21` [Entry 3029] displayed an IC50 of less than 50 nM. The EC50 in assay [3] (setting [7]) was more than 50 nM.

Turning to `CCN1c2ncc(CCOc3ccc(NC(=O)c4ccc(Cl)nc4)cc3C)cc2C(=O)N(C)c2cccnc21` [Entry 3035], the IC50 in assay [1] and in assay [2] (setting [5]) was less than 50 nM each time.

As to `CCN1c2ncc(CCOc3ccc(Nc4ccccn4)cc3C)cc2C(=O)N(C)c2cccnc21` [Entry 3036], the IC50 in assay [1] is less than 50 nM. For the same compound, the EC50 in assay [3] (setting [7]) was less than 10 nM.

The compound `CCN1c2ncc(CCOc3ccc(S(=O)(=O)c4ccncc4)cc3C)cc2C(=O)N(C)c2cccnc21` [Entry 3037] returned an IC50 in assay [1] of less than 50 nM. Further, the EC50 in assay [3] (setting [7]) is less than 10 nM.

`CCN1c2ncc(CCOc3ccc(NC(C)=O)cc3C)cc2C(=O)N(C)c2cccnc21` [Entry 4001]: the IC50 was 50 to 100 nM in assay [1] and less than 50 nM in assay [2] (setting [5]).

Consider `CCN1c2ncc(CCOc3ccc(N(CC(=O)O)C(C)=O)cc3C)cc2C(=O)N(C)c2cccnc21` [Entry 4002], for which the IC50 in assay [1] was more than 100 nM; in assay [2] (setting [5]), less than 50 nM.

In the case of `CCN1c2ncc(CCOc3ccc(N(Cc4ccc(C(=O)O)cc4)C(C)=O)cc3C)cc2C(=O)N(C)c2cccnc21` [Entry 4003], the results for the IC50 in assay [1] and in assay [2] (setting [5]) were more than 100 nM and 50 to 100 nM, respectively.

For `CCN1c2ncc(CCOc3ccc(NC(=O)NCC(=O)O)cc3C)cc2C(=O)N(C)c2cccnc21` [Entry 4004], the figures for the IC50 in assay [1] and in assay [2] (setting [5]) were more than 100 nM and less than 50 nM, respectively. Besides, the EC50 with HIV-1 wild type (Human immunodeficiency virus 1) lay within 10 to 50 nM.

Regarding `CCN1c2ncc(CCOc3ccc(NS(C)(=O)=O)cc3C)cc2C(=O)N(C)c2cccnc21` [Entry 4005], the IC50 in assay [1] and in assay [2] (setting [5]) was less than 50 nM each time.

`CCN1c2ncc(CCOc3ccc(C(=O)NN)cc3C)cc2C(=O)Nc2c(C)ccnc21` [Entry 4019]: the IC50 in assay [1] (setting [4]) is 50 to 100 nM; in assay [2] (setting [5]), less than 50 nM.
